Experimental data taken from patent US11267825B2 (AICURIS GMBH & CO. KG, priority 2017, dated 2022).

How the values were obtained:
HBV = experiment: Determination of HBV DNA from the supernatants of HepAD38 cells (anti-HBV activity); format: cell-based, hepatitis B virus; details: Hepatitis B virus, 144 h; HBV DNA in HepAD38 supernatant at day 6; read-out: Cell Activity (EC50)
Procedure, shortened: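 EC50 values were obtained by non-linear regression of HBV DNA copy numbers measured by qPCR against pCH-9/3091 plasmid standards. The DNA came from filtered supernatants collected on day 6. Before that, tetracycline-withdrawn HepAD38 cells had been exposed to serial half-log compound dilutions, with tetracycline-treated cells as the non-producing control.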

HBV core protein = HBV core protein (UniProt P03146); format: biochemical; details: read-out: Assembly Activity (IC50); BODIPY-FL labelled core protein, assembly started with NaCl, read after 6 min
HBV core protein, sequence (P03146 whole entry, looked up, the tested form may be a part): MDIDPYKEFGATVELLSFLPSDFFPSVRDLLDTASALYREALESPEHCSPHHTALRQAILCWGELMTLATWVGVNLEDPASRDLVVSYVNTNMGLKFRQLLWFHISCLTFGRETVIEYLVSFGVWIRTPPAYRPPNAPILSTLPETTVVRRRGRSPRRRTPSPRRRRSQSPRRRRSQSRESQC
Procedure, shortened: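 Compounds tested at 8 concentrations in 0.5-log steps from 100, 31.6 or 10 μM against 1.0–2.0 μM BODIPY-FL-labelled Cys150 core dimers (residues 1–149), 50 mM HEPES pH 7.5. NaCl ([…] final) triggered assembly; quenching read at 6 min, 477/525 nm, with 2.5 M and 0 M NaCl as controls; EC50 by nonlinear fit.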

| Compound | EC50 (HBV) | IC50 (HBV core protein) |
| --- | --- | --- |
| CCc1ccc(F)c2[nH]c(C(=O)N3CCc4nc(NCC5(CO)CC5)sc4C3)cc12 [Example 236, [1-({[5-(4-ethyl-7-fluoro-1H-indole-2-carbonyl)-4H,5H,6H,7H-[1,3]thiazolo[5,4-c]pyridin-2-yl]amino}methyl)cyclopropyl]methanol] | < 1 µM | < 5 µM |
| O=C(c1cc2ccccc2[nH]1)N1CCc2nc(NCC3(CO)CCOCC3)sc2C1 [Example 237, [4-({[5-(1H-indole-2-carbonyl)-4H,5H,6H,7H-[1,3]thiazolo[5,4-c]pyridin-2-yl]amino}methyl)oxan-4-yl]methanol] | < 1 µM | < 5 µM |
| CC(C)(C)OC(=O)N1CCOCC1CNc1nc2c(s1)CN(C(=O)c1cc3ccccc3[nH]1)CC2 (centres unmarked) [Example 238, tert-butyl 3-({[5-(1H-indole-2-carbonyl)-4H,5H,6H,7H-[1,3]thiazolo[5,4-c]pyridin-2-yl]amino}methyl)morpholine-4-carboxylate] | 1 to 10 µM | < 100 µM |
| O=C(c1cc2cc(F)c(Cl)cc2[nH]1)N1CCc2nc(NCC3CCOC3)sc2C1 (centres unmarked) [Example 239, 5-(6-chloro-5-fluoro-1H-indole-2-carbonyl)-N-[(oxolan-3-yl)methyl]-4H,5H,6H,7H-[1,3]thiazolo[5,4-c]pyridin-2-amine] | < 1 µM | < 5 µM |
| O=C(c1cc2ccccc2[nH]1)N1CCc2nc(NC[C@@H]3COC[C@@H]3O)sc2C1 [Example 241, (3R,4R)-4-({[5-(1H-indole-2-carbonyl)-4H,5H,6H,7H-[1,3]thiazolo[5,4-c]pyridin-2-yl]amino}methyl)oxolan-3-ol] | < 1 µM | < 5 µM |
| CC(=O)N1CCOC(CNc2nc3c(s2)CN(C(=O)c2cc4ccccc4[nH]2)CC3)C1 (centres unmarked) [Example 242, 1-[2-({[5-(1H-indole-2-carbonyl)-4H,5H,6H,7H-[1,3]thiazolo[5,4-c]pyridin-2-yl]amino}methyl)morpholin-4-yl]ethan-1-one] | < 1 µM | 5 to 10 µM |
| CC(O)c1cccc2[nH]c(C(=O)N3CCc4nc(NCC5CCOC5)sc4C3)cc12 (centres unmarked) [Example 244, 1-[2-(2-{[(oxolan-3-yl)methyl]amino}-4H,5H,6H,7H-[1,3]thiazolo[5,4-c]pyridine-5-carbonyl)-1H-indol-4-yl]ethan-1-ol] | < 1 µM | < 100 µM |
| O=C(c1cc2c(CO)cccc2[nH]1)N1CCc2nc(NCC3CCOC3)sc2C1 (centres unmarked) [Example 245, [2-(2-{[(oxolan-3-yl)methyl]amino}-4H,5H,6H,7H-[1,3]thiazolo[5,4-c]pyridine-5-carbonyl)-1H-indol-4-yl]methanol] | < 1 µM | < 100 µM |
| COC1(CNc2nc3c(s2)CN(C(=O)c2cc4ccccc4[nH]2)CC3)CCOC1 (centres unmarked) [Example 246, 5-(1H-indole-2-carbonyl)-N-[(3-methoxyoxolan-3-yl)methyl]-4H,5H,6H,7H-[1,3]thiazolo[5,4-c]pyridin-2-amine] | < 1 µM | < 5 µM |
| CC(Nc1nc2c(s1)CN(C(=O)c1cc3ccccc3[nH]1)CC2)C1CCOC1 (centres unmarked) [Example 247, 5-(1H-indole-2-carbonyl)-N-[1-(oxolan-3-yl)ethyl]-4H,5H,6H,7H-[1,3]thiazolo[5,4-c]pyridin-2-amine] | < 1 µM | < 5 µM |
| CCc1cc(F)cc2[nH]c(C(=O)N3CCc4nc(NCC5(CO)CC5)sc4C3)cc12 [Example 248, [1-({[5-(4-ethyl-6-fluoro-1H-indole-2-carbonyl)-4H,5H,6H,7H-[1,3]thiazolo[5,4-c]pyridin-2-yl]amino}methyl)cyclopropyl]methanol] | < 1 µM | < 5 µM |
| CC(O)c1cc(F)cc2[nH]c(C(=O)N3CCc4nc(NCC5(CO)CC5)sc4C3)cc12 (centres unmarked) [Example 249, 1-{6-fluoro-2-[2-({[1-(hydroxymethyl)cyclopropyl]methyl}amino)-4H,5H,6H,7H-[1,3]thiazolo[5,4-c]pyridine-5-carbonyl]-1H-indol-4-yl}ethan-1-ol] | < 1 µM | 5 to 10 µM |
| CC(O)c1cccc2[nH]c(C(=O)N3CCc4nc(NCC5(CO)CC5)sc4C3)cc12 (centres unmarked) [Example 250, 1-{2-[2-({[1-(hydroxymethyl)cyclopropyl]methyl}amino)-4H,5H,6H,7H-[1,3]thiazolo[5,4-c]pyridine-5-carbonyl]-1H-indol-4-yl}ethan-1-ol] | < 1 µM | < 100 µM |
| O=C(c1cc2c(Cl)c(F)ccc2[nH]1)N1CCc2nc(NCC3(CO)CC3)sc2C1 [Example 251, [1-({[5-(4-chloro-5-fluoro-1H-indole-2-carbonyl)-4H,5H,6H,7H-[1,3]thiazolo[5,4-c]pyridin-2-yl]amino}methyl)cyclopropyl]methanol] | < 1 µM | < 5 µM |
| O=C(c1cc2c(F)c(F)ccc2[nH]1)N1CCc2nc(NCC3(CO)CC3)sc2C1 [Example 252, [1-({[5-(4,5-difluoro-1H-indole-2-carbonyl)-4H,5H,6H,7H-[1,3]thiazolo[5,4-c]pyridin-2-yl]amino}methyl)cyclopropyl]methanol] | < 1 µM | < 5 µM |
| O=C(c1cc2ccccc2[nH]1)N1CCc2nc(NCC3(O)CCOC3)sc2C1 (centres unmarked) [Example 253, 3-({[5-(1H-indole-2-carbonyl)-4H,5H,6H,7H-[1,3]thiazolo[5,4-c]pyridin-2-yl]amino}methyl)oxolan-3-ol] | < 1 µM | < 5 µM |
| CCc1ccc(F)c2[nH]c(C(=O)N3CCc4nc(NCC5CCOC5)sc4C3)cc12 (centres unmarked) [Example 254, 5-(4-ethyl-7-fluoro-1H-indole-2-carbonyl)-N-[(oxolan-3-yl)methyl]-4H,5H,6H,7H-[1,3]thiazolo[5,4-c]pyridin-2-amine] | < 1 µM | < 5 µM |
| CCc1cc(F)cc2[nH]c(C(=O)N3CCc4nc(NCC5CCOC5)sc4C3)cc12 (centres unmarked) [Example 255, 5-(4-ethyl-6-fluoro-1H-indole-2-carbonyl)-N-[(oxolan-3-yl)methyl]-4H,5H,6H,7H-[1,3]thiazolo[5,4-c]pyridin-2-amine] | < 1 µM | < 5 µM |
| CC(O)c1cc(F)cc2[nH]c(C(=O)N3CCc4nc(NCC5CCOC5)sc4C3)cc12 (centres unmarked) [Example 258, 1-[6-fluoro-2-(2-{[(oxolan-3-yl)methyl]amino}-4H,5H,6H,7H-[1,3]thiazolo[5,4-c]pyridine-5-carbonyl)-1H-indol-4-yl]ethan-1-ol] | 1 to 10 µM | < 100 µM |
| O=C(c1cc2ccccc2[nH]1)N1CCc2nc(NCC3CNCCO3)sc2C1 (centres unmarked) [Example 260, 5-(1H-indole-2-carbonyl)-N—[(morpholin-2-yl)methyl]-4H,5H,6H,7H-[1,3]thiazolo[5,4-c]pyridin-2-amine] | 1 to 10 µM | < 5 µM |
| CC(C)(CC(=O)Nc1nc2c(s1)CN(C(=O)c1cc3ccccc3[nH]1)CC2)C1CC1 [Example 261, 3-cyclopropyl-N-[5-(1H-indole-2-carbonyl)-4H,5H,6H,7H-[1,3]thiazolo[5,4-c]pyridin-2-yl]-3-methylbutanamide] | < 1 µM | < 100 µM |
| CCC(C)(C)CC(=O)Nc1nc2c(s1)CN(C(=O)c1cc3ccccc3[nH]1)CC2 [Example 262, N-[5-(1H-indole-2-carbonyl)-4H,5H,6H,7H-[1,3]thiazolo[5,4-c]pyridin-2-yl]-3,3-dimethylpentanamide] | < 1 µM | < 100 µM |
